Laboratory results reported in PubChem BioAssay AID1963870 (Molecular Pharmacology Branch, DTP, NCI, 2024).

Test system: 292921-168-R-J2-PDC KRAS tumor spheroid viability
Test: Anticancer human tumor 292921-168-R-J2-PDC patient-derived pancreatic carcinoma cell line growth inhibition [KRAS2]
Details: spheroids with HUVEC and MSC; for viability, T/C: stronger effect = lower value
Description: Multicellular complex tumor spheroid response to RAS pathway inhibitors in combination with a targeted agents in patient-derived cell lines with oncogenic KRAS variants from multiple cancer types
A high-throughput screen of multi-cell type tumor spheroids was designed to identify active combinations of targeted small molecules and KRAS pathway inhibitors. Complex spheroids include a stromal component modeled by human endothelial cells (HUVEC) and fibroblasts modeled by human mesenchymal stem cells (MSCs). The concentration ranges selected for each drug and investigational agent were based upon clinically achievable concentrations if the clinical Cmax of the agent was known.
Compounds. The drugs and investigational agents: BI-3406 (NSC825286), BAY-293 (NSC824723), batoprotafib (TNO155; NSC825523), sotorasib (AMG 510; NSC818433), MRTX1257 (NSC819558), elimusertib (BAY 1895344; NSC800525), molibresib (GSK525762; NSC774829), temuterkib (LY3214996; NSC803410), venetoclax (NSC766270), alisertib (NSC759677), olaparib (NSC753686), talazoparib (NSC767125), erdafitinib (NSC781556), ipatasertib (NSC767898), cabozantinib (NSC761068), nintedanib (NSC756659), abemaciclib (NSC768073), docetaxel (NSC628503), trametinib (NSC758246), and sapanisertib (NSC764658) were obtained from the National Cancer Institute (NCI) Developmental Therapeutics Program Chemical Repository. The FDA-approved anticancer drug set is available from the Developmental Therapeutics Program. […] The stock solutions were prepared in dimethyl sulfoxide (DMSO, Sigma-Aldrich, St. Louis, MO, cat. D2650) at 800-fold the tested concentration and stored at -70 degrees C prior to their use. All drugs and investigational agents were tested over a range starting from a high concentration at or near the clinical Cmax and decreasing in half-log increments. If the clinical Cmax for an agent had not been determined, the highest concentration tested was 10 microM.
Cell Culture. All cells were maintained in an incubator at 37 degrees C and 5% CO2 with 95% humidity. The PDC lines were cultured according to standard operating procedures established by the NCI PDMR (https://pdmr.cancer.gov/sops/default.htm). Briefly, all PDCs were thawed and cultured in Matrigel-coated flasks prepared with a working solution of 1X Ham's F-12 nutrient mix, without supplementation (Invitrogen, Waltham, MA, cat. 11765054), 100 U/mL penicillin-streptomycin (Invitrogen, cat. 15140122), and 2.5% Matrigel (Corning Inc., Corning, NY, cat. 354248) for the first three passages. All PDCs were cultured in complete DMEM/F-12 media containing advanced DMEM/F-12 (Invitrogen, cat. 12634028), 4.9% defined fetal bovine serum, heat inactivated (HyClone Laboratories Inc., Logan, UT, cat. SH30070.03HI), 389 ng/mL hydrocortisone (Sigma-Aldrich, cat. H4001), 9.7 ng/mL human EGF recombinant protein (Invitrogen, cat. PHG0313), 23.4 microg/mL adenine (Sigma-Aldrich, cat. A2786), 97.3 U/mL penicillin-streptomycin (Invitrogen, cat. 15140122), 1.9 mM L-glutamine (Invitrogen, cat. 25030081), and 9.7 microM Y-27632 dihydrochloride (Tocris Bioscience, Bristol, United Kingdom, cat. 1254). The PDCs were cultured in complete DMEM/F12 media without 9.7 microM Y-27632 dihydrochloride for at least two passages prior to the screen. The established cell line HOP-62 was cultured in RPMI 1640 medium, HEPES (Invitrogen, cat. 22400105) with 10% defined fetal bovine serum (HyClone Laboratories Inc., cat. SH30070.03) and 2 mM L-glutamine (Invitrogen, cat. 25030081). The pooled donor HUVEC were cultured in endothelial cell growth medium 2 (PromoCell, Heidelberg, Germany, cat. C-22011) and the hMSC were cultured in mesenchymal stem cell growth medium 2 (PromoCell, cat. C-28009). For all experiments, HUVEC and hMSC were used at passages </=5, while the malignant cell lines were used at passages </=15. […]

[1] = curve of first compound, second compound 0.1 µM
[2] = curve of first compound, second compound 0.316 µM
[3] = curve of first compound, second compound 1 µM
[4] = curve of first compound, second compound 3.16 µM
[5] = curve of first compound, second compound 10 µM
[6] = second compound 0.1 µM, first compound 0.0316 µM
[7] = second compound 0.1 µM, first compound 0.1 µM
[8] = second compound 0.1 µM, first compound 0.316 µM
[9] = second compound 0.1 µM, first compound 1 µM
[10] = second compound 0.1 µM, first compound 3.16 µM
[11] = second compound 0.316 µM, first compound 0.0316 µM
[12] = second compound 0.316 µM, first compound 0.1 µM
[13] = second compound 0.316 µM, first compound 0.316 µM
[14] = second compound 0.316 µM, first compound 1 µM
[15] = second compound 0.316 µM, first compound 3.16 µM
[16] = second compound 1 µM, first compound 0.0316 µM
[17] = second compound 1 µM, first compound 0.1 µM
[18] = second compound 1 µM, first compound 0.316 µM
[19] = second compound 1 µM, first compound 1 µM
[20] = second compound 1 µM, first compound 3.16 µM
[21] = second compound 3.16 µM, first compound 0.0316 µM
[22] = second compound 3.16 µM, first compound 0.1 µM
[23] = second compound 3.16 µM, first compound 0.316 µM
[24] = second compound 3.16 µM, first compound 1 µM
[25] = second compound 3.16 µM, first compound 3.16 µM
[26] = second compound 10 µM, first compound 0.0316 µM
[27] = second compound 10 µM, first compound 0.1 µM
[28] = second compound 10 µM, first compound 0.316 µM
[29] = second compound 10 µM, first compound 1 µM
[30] = second compound 10 µM, first compound 3.16 µM
[31] = second compound 0.1 µM, first compound 10 µM
[32] = second compound 0.316 µM, first compound 10 µM
[33] = second compound 1 µM, first compound 10 µM
[34] = second compound 3.16 µM, first compound 10 µM
[35] = second compound 10 µM, first compound 10 µM
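Further: drug exposure lasted seven days after spheroids formed for three days.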
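Wherever viability, T/C is given: percent of DMSO vehicle control viability which is 100%.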

Row | SMILES | IC50 [1] [nM] | IC50 [2] [nM] | IC50 [3] [nM] | IC50 [4] [nM] | IC50 [5] [nM] | viability, T/C [6] [%] | viability, T/C [7] [%] | viability, T/C [8] [%] | viability, T/C [9] [%] | viability, T/C [10] [%] | viability, T/C [11] [%] | viability, T/C [12] [%] | viability, T/C [13] [%] | viability, T/C [14] [%] | viability, T/C [15] [%] | viability, T/C [16] [%] | viability, T/C [17] [%] | viability, T/C [18] [%] | viability, T/C [19] [%] | viability, T/C [20] [%] | further results
1 | CC1COCCN1c1cc(-c2ccnn2C)c2ccnc(-c3ccn[nH]3)c2n1 (centres undefined) + CC1OCC2(CCN(c3cnc(Sc4ccnc(N)c4Cl)c(N)n3)CC2)C1N | < 10 | < 10 | < 10 | < 10 | < 10 | 23.8 | 15.9 | 15 | 15 | 16.2 | 20.6 | 14.6 | 13 | 13.3 | 14.5 | 21.9 | 13.4 | 12.3 | 12.3 | 12.3 | viability, T/C (second compound 0.1 µM, first compound 0.01 µM): 44.6%; viability, T/C (second compound 0.316 µM, first compound 0.01 µM): 38.9%; viability, T/C (second compound 1 µM, first compound 0.01 µM): 33.5%; viability, T/C (second compound 3.16 µM, first compound 0.01 µM): 28.2%; viability, T/C [21]: 17.8%; viability, T/C [22]: 13.4%; viability, T/C [23]: 11%; viability, T/C [24]: 10.2%; viability, T/C [25]: 10.9%; viability, T/C (second compound 10 µM, first compound 0.01 µM): 25.3%; viability, T/C [26]: 18.2%; viability, T/C [27]: 13.1%; viability, T/C [28]: 10.2%; viability, T/C [29]: 10.7%; viability, T/C [30]: 9.89%
2 | CNCc1ccccc1-c1csc(C(C)Nc2nc(C)nc3cc(OC)c(OC)cc23)c1 (centres undefined) |  |  |  |  |  |  |  |  |  |  |  |  |  |  |  |  |  |  |  |  | viability, T/C (compound 0.316 µM): 88.7% [middle of 16 runs]; viability, T/C (compound 10 µM): 0.15% [middle of 14 runs]; IC50 (compound alone, run of 08/26/2021): 1.28 µM [middle of 5 runs]; IC50 (compound alone, run of 09/02/2021): 1.34 µM [middle of 5 runs]
3 | CCNC(=O)CC1N=C(c2ccc(Cl)cc2)c2cc(OC)ccc2-n2c(C)nnc21 (centres undefined) + C=CC(=O)N1CCN(c2nc(=O)n(-c3c(C)ccnc3C(C)C)c3nc(-c4c(O)cccc4F)c(F)cc23)C(C)C1 | 6090 | 6080 | 4240 | 530 | < 31.6 | 111 | 104 | 77.2 | 63.1 | 60.7 | 117 | 103 | 81.1 | 68.8 | 63 | 109 | 97 | 77.6 | 65.4 | 54.8 | viability, T/C [31]: 43.4%; viability, T/C [32]: 41.5%; viability, T/C [33]: 40.7%; viability, T/C [21]: 78.2%; viability, T/C [22]: 69.1%; viability, T/C [23]: 53.1%; viability, T/C [24]: 43.8%; viability, T/C [25]: 35.6%; viability, T/C [34]: 26.4%; viability, T/C [26]: 29.1%; viability, T/C [27]: 26.2%; viability, T/C [28]: 23.8%; viability, T/C [29]: 16.8%; viability, T/C [30]: 9.64%; viability, T/C [35]: 6.83%
4 | COc1cc2nccc(Oc3ccc(NC(=O)C4(C(=O)Nc5ccc(F)cc5)CC4)cc3)c2cc1OC + C=CC(=O)N1CCN(c2nc(=O)n(-c3c(C)ccnc3C(C)C)c3nc(-c4c(O)cccc4F)c(F)cc23)C(C)C1 | 1960 | 2000 | 1680 | 822 | < 31.6 | 102 | 102 | 103 | 79.6 | 28.9 | 122 | 112 | 102 | 77 | 30.9 | 111 | 108 | 96.3 | 69.3 | 27 | viability, T/C [31]: 18.6%; viability, T/C [32]: 19.8%; viability, T/C [33]: 17.2%; viability, T/C [21]: 74.1%; viability, T/C [22]: 77.6%; viability, T/C [23]: 62.9%; viability, T/C [24]: 49.6%; viability, T/C [25]: 18.9%; viability, T/C [34]: 14%; viability, T/C [26]: 18.9%; viability, T/C [27]: 25.4%; viability, T/C [28]: 15.7%; viability, T/C [29]: 22.5%; viability, T/C [30]: 11.1%; viability, T/C [35]: 6.69%
